Assays:
[1] = test system: RAW264.7; assay: Anti-inflammatory activity in mouse LPS-stimulated RAW264.7 cells assessed as decrease in TNFalpha levels preincubated for 1 hr followed by LPS-stimulation and measured after 12 hrs by ELISA; format: functional, cell-based
[2] = test system: RAW264.7; assay: Anti-inflammatory activity in mouse RAW264.7 cells assessed as inhibition of LPS-induced NO production preincubated for 1 hr followed by LPS-stimulation and measured after 18 hrs by Griess reagent-based assay; format: functional, cell-based
[3] = test system: RAW264.7; assay: Anti-inflammatory activity in mouse LPS-stimulated RAW264.7 cells assessed as decrease in IL1beta levels preincubated for 1 hr followed by LPS-stimulation and measured after 12 hrs by ELISA; format: functional, cell-based
[4] = test system: RAW264.7; assay: Anti-inflammatory activity in mouse LPS-stimulated RAW264.7 cells assessed as decrease in PGE2 levels at preincubated for 1 hr followed by LPS-stimulation and measured after 12 hrs by ELISA; format: functional, cell-based
[5] = test system: RAW264.7; assay: Anti-inflammatory activity in mouse LPS-stimulated RAW264.7 cells assessed as decrease in iNOS protein levels preincubated for 1 hr followed by LPS-stimulation and measured after 16 hrs by Western blot analysis; format: functional, cell-based
[6] = test system: RAW264.7; assay: Cytotoxicity against mouse RAW264.7 cells at anti-inflammatory IC50 after 19 hrs by MTT assay; format: cell-based; details: raw264.7, 19 h
[7] = test system: RAW264.7; assay: Anti-inflammatory activity in mouse LPS-stimulated RAW264.7 cells assessed as decrease in COX2 protein levels preincubated for 1 hr followed by LPS-stimulation and measured after 16 hrs by Western blot analysis; format: functional, cell-based
[8] = test system: RAW264.7; assay: Anti-inflammatory activity in mouse LPS-stimulated RAW264.7 cells assessed as decrease in IL6 levels preincubated for 1 hr followed by LPS-stimulation and measured after 12 hrs by ELISA; format: functional, cell-based

C[C@@H]1O[C@@H](O[C@H]2[C@H](O[C@H]3CC[C@]4(C)[C@H]5CC=C6[C@@H]7CC(C)(C)CC[C@]7(C(=O)O)CC[C@@]6(C)[C@]5(C)CC[C@H]4C3(C)C)OC[C@H](O[C@@H]3O[C@H](CO)[C@@H](O)[C@H](O)[C@H]3O)[C@@H]2O)[C@H](O)[C@H](O)[C@H]1O [HEDERACOLCHISIDE A1]
inhibition [1]: Dose-dependent effect
IC50 [2]: 590 nM
inhibition [3]: Dose-dependent effect
inhibition [4]: Dose-dependent effect
inhibition [5]: Dose-dependent effect
Activity [6]: Non-Toxic
inhibition [7]: Dose-dependent effect
inhibition [8]: Dose-dependent effect

From ChEMBL document CHEMBL4400561, “Isolation, structural elucidation, and insights into the anti-inflammatory effects of triterpene saponins from the leaves of Stauntonia hexaphylla” (Bioorg Med Chem Lett, 2019)
